Molecules are shown by their SMILES.

This data set can be described thus: main transition temperature (TM) of phosphatidylcholines. The format is physicochemical. The settings on record: phosphatidylcholine; acyl chains on positions 1 and 2 of glycero-3-phosphocholine or 1 and 3 of glycero-2-phosphocholine. As for the experimental part: The abovementioned preferred composition of the liposome according to the invention can be tailor-made for other temperature ranges by choice of components with the main transition temperature suitable in each case. In table 1, the main transition temperatures (TM) of phosphatidylcholines whose main transition temperatures lie in the range from 0 to 80° C. are indicated.
Consider `CCCCCCCCCCCCCCCCCC(=O)OC[C@H](COP(=O)([O-])OCC[N+](C)(C)C)OC(=O)CCCCCCCCCCCCCCCCC` [1,2-distearoyl-, 1,2-distearoyl-sn-glycero-3-phosphocholine], for which the “TM (main transition temperature)” value came out at 56 °C.
`CCCCCCCCCCCCCCCCCC(=O)OCC(COP(=O)([O-])OCC[N+](C)(C)C)OC(=O)CCCCCCCCCCCCC` (stereo not drawn) [1-stearoyl-2-myristoyl-]: the “TM (main transition temperature)” value was 33 °C.
The result for `CCCCCCCC/C=C\CCCCCCCC(=O)OC(COC(=O)CCCCCCCCCCCCCCCCC)COP(=O)([O-])OCC[N+](C)(C)C` (stereo not drawn) [1-stearoyl-2-oleoyl-] reads 7 °C; that for `CCCCCCCCCCCCCCCC(=O)OC[C@H](COP(=O)([O-])OCC[N+](C)(C)C)OC(=O)CCCCCCCCCCCCCCC` [1,2-dipalmitoyl-, 1,2-dipalmitoyl-sn-glycero-3-phosphocholine], 41 °C; that for `CCCCCCCCCCCCCCCCCC(=O)OCC(COP(=O)([O-])OCC[N+](C)(C)C)OC(=O)CCCCCCCCCCC` (stereo not drawn) [1-stearoyl-2-lauroyl-], 17 °C.
The result for `CCCCCCCC/C=C\CCCCCCCC(=O)OC(COC(=O)CCCCCCCCCCCCCCC)COP(=O)([O-])OCC[N+](C)(C)C` (stereo not drawn) [1-palmitoyl-2-oleoyl-] reads 5 °C; that for `CCCCCCCCCCCCCCCCCCCCCCCC(=O)OCC(COP(=O)([O-])OCC[N+](C)(C)C)OC(=O)CCCCCCCCCCCCCCCCCCCCCCC` (stereo not drawn) [1,2-dilignoceroyl-], 80 °C.
As to `CCCCCCCCCCCCCCCCCCCC(=O)OCC(COP(=O)([O-])OCC[N+](C)(C)C)OC(=O)CCCCCCCCCCCCCCCCCCC` (stereo not drawn) [1,2-diarachinoyl-], the “TM (main transition temperature)” value was 66 °C.
For `CCCCCCCC/C=C\CCCCCCCC(=O)OC(COC(=O)CCCCCCCCCCCCCCCCCCCCC)COP(=O)([O-])OCC[N+](C)(C)C` (stereo not drawn) [1-behenoyl-2-oleoyl-] the value was 14 °C.
Take `CCCCCCCCCCCCCCCC(=O)OCC(COP(=O)([O-])OCC[N+](C)(C)C)OC(=O)CCCCCCCCCCC` (stereo not drawn) [1-palmitoyl-2-lauroyl-]: the “TM (main transition temperature)” value came to 11 °C.
The result for `CCCCCCCCCCCCCCCC(=O)OCC(COP(=O)([O-])OCC[N+](C)(C)C)OC(=O)CCCCCCCCCCCCC` (stereo not drawn) [1-palmitoyl-2-myristoyl-] reads 27 °C.
For `CCCCCCCCCCCCCC(=O)OCC(COP(=O)([O-])OCC[N+](C)(C)C)OC(=O)CCCCCCCCCCCCC` (stereo not drawn) [1,2-dimyristoyl-] the value was 23 °C.

The values above are taken from patent US9980907B2, “Thermolabile liposome with a controlled release temperature” (Max-Planck-Gesellschaft zur Förderung der Wissenschaften …, priority 2002, dated 2018).
